The source of these data is patent US20040005294A1, “IGFBP-3 in the diagnosis and treatment of cancer” (priority 2002, published 2004).

Common to all, as to assay type: cell-based, human
For one experiment, the system named is PI3K in 1799 cells. Kind of experiment: PI3K assay of immunoprecipitates. As to conditions: 10^−7 M, IGF-I activated. As for the experimental part: Approximately 5×10^6 1799 cells were treated with 10^−7 M deguelin or 0.1% DMSO for different time periods (0-24 h) in the absence of any additional stimulatory growth factors. PI3K in these cells was then activated by treatment with 50 ng/mL IGF-I for 15 min. Cells were lylsed, and PI3K was immunoprecipitated from 500 μg of total cell extracts with 5 μL of rabbit antibody against full-length rat p85 PI3K (Upstate Biotechnology, Inc.), which coprecipitates the p110 catalytic subunit of PI3K, and 20 μL of protein A-sepharose beads (Amersham Pharmacia Biotech). PI3K activity in the immunoprecipitates was analyzed using bovine brain extract (Type I; Sigma-Aldrich), which contains a mixture of phosphatidylinositol, phosphatidylinositol 4-phosphate, and phosphatidylinositol 4,5-bisphosphate as a substrate, as described (Hsu et al., 2000). Jurkat cell lysates (Upstate Biotechnology, Inc.) and IGF-I-activated […] NSCLC cell lysates were used as positive controls.

For experiment [1], the system named is PI3K/Akt pathway in 1799 cells. Nature of the experiment: Immunoblot of pAkt and pGSK-3β, 1799 cells. As to conditions: 10^−7 M. The protocol: Whole cell lysates from 1×10^6 cells were prepared in lysis buffer as described (Lonardo et al., 2002). Equivalent amounts of protein were resolved by sodium dodecyl sulfate (SDS)-polyacrylamide gels (7.5%-12%) and transferred to a nitrocellulose membrane. After the membrane was blocked in Tris-buffered saline (TBS) containing 0.05% Tween 20 (TBST) and 5% (w/v) nonfat powdered milk, the membrane was incubated with primary antibody at the appropriate dilution in TBS-5% nonfat milk at 4° C. for 16 h. The membrane was then washed multiple times with TBST and incubated with the appropriate horseradish peroxidaseconjugated secondary antibody for 1 h at room temperature. The protein-antibody complexes were detected by enhanced chemilurminescence (ECL kit; Amersham, Arlington Heights, Ill.), according to the manufacturer's recommended protocol. […]

For the next experiment, the system named is 1198 and 1170-1 cells. Nature of the experiment: Apoptosis by TUNEL and DNA fragmentation, 1198 and 1170-1 cells. As to conditions: treatment for 1 day. The protocol:
[…] Apoptosis was assessed by morphology, by a flow cytometry-based, modified terminal deoxynucleotidyl transferase dUTP nick end labeling (TUNEL) assay, and by the detection of fragmented DNA. For morphology, live cells were observed by light microscopy using a ×100 objective. For TUNEL analysis, both adherent and nonadherent cells were harvested and pooled, fixed with 1% paraformaldehyde and 70% ethanol, and processed using the APO-BrdU staining kit (Phoenix Flow Systems, San Diego, Calif.), a modified TUNEL assay, as described (Lee et al., 2002). Cells treated with DMSO were used to gate the control nonapoptotic populations and as a reference for cells treated with deguelin. An internal control (HL-60 cells treated with camptothecin to induce apoptosis) provided in the apoptosis detection kit was also used to ensure that the TUNEL reaction was occurring during the staining procedure. For the detection of fragmented nucleosomal DNA, cells were processed using the TACS apoptotic DNA laddering kit (Trevigen Inc., Gaithersburg, Md.), according to the manufacturer's recommended protocol.

Experiment [2] has as its system 1799, 1198 and 1170-1 cells. Kind of experiment: Cell cycle analysis by flow cytometry, HBE cell lines. As to conditions: 10^−8 M or 10^−7 M, 3 days. The protocol: NHBE and 1799 cells were plated at a concentration of 2×10^5 cells/well in six-well plates. The next day, cells were treated with deguelin (various concentrations) or DMSO (0.1%) for 3 days to achieve maximal antiproliferative effects (determined from growth curves). All cells (nonadherent and adherent) were harvested, fixed with 1% paraformaldehyde and 70% ethanol, stained with 50 μg/mL propidium iodide, and subjected to flow cytometric analysis to determine the percentage of cells in specific phases of the cell cycle (G1, S, and G2/M) as described (Sun et al., 1997). Flow cytometric analysis was performed using a Coulter EPICS Profile II flow cytometer (Coulter Corp., Miami, Fla.) equipped with a 488-nm argon laser. Approximately 10 000 events (cells) were evaluated for each sample. Two independent experiments were performed and one is presented.
For orientation: In flow cytometry, cells or beads pass a laser one at a time.

For another experiment, the system named is 1799 cells. Kind of experiment: Immunoblot of apoptosis-related enzymes and Bcl family members. The note with it: 3 days. As for the experimental part:
Whole cell lysates from 1×10^6 cells were prepared in lysis buffer as described (Lonardo et al., 2002). Equivalent amounts of protein were resolved by sodium dodecyl sulfate (SDS)-polyacrylamide gels (7.5%-12%) and transferred to a nitrocellulose membrane. After the membrane was blocked in Tris-buffered saline (TBS) containing 0.05% Tween 20 (TBST) and 5% (w/v) nonfat powdered milk, the membrane was incubated with primary antibody at the appropriate dilution in TBS-5% nonfat milk at 4° C. for 16 h. The membrane was then washed multiple times with TBST and incubated with the appropriate horseradish peroxidaseconjugated secondary antibody for 1 h at room temperature. The protein-antibody complexes were detected by enhanced chemilurminescence (ECL kit; Amersham, Arlington Heights, Ill.), according to the manufacturer's recommended protocol.
The following antibodies and working dilutions were used for the Western blots: rabbit polyclonal antibodies against human phosphorylated Akt (pAkt) (Ser473) (1:1000), Akt (1:1000), phosphorylated glycogen synthase kinase 3β (pGSK-3β) (Ser9) (1:1000), and mouse monoclonal antibody against human antiphosphorylated MAPK (anti-pMAPK) (Thr202/Tyr204) (1:500) (Cell Signaling Technology, Beverly, Mass.); rabbit polyclonal anti-GSK-3α/β (1:1000) (BD Transduction Laboratories, Lexington, Ky.); rabbit polyclonal anti-Bax and anti-caspase-3 antibodies (1:2000) (Pharmingen, San Diego, Calif.); rabbit polyclonal anti-Bcl-2 (1:1000) and rabbit polyclonal antipoly(ADP-ribose) polymerase (PARP) antibody (1:1000) (VIC5; Roche Molecular Biochemicals, Indianapolis, Ind.); rabbit polyclonal anti-hemagglutinin (HA) antibody (1:1000), goat polyclonal antibodies against extracellular related kinase 1(Erk-1; 1:1000), Erk-2 (1:1000), and β-actin (1:4000) (Santa Cruz Biotechnology, Inc., Santa Cruz, Calif.); rabbit anti-mouse immunoglobulin G (IgG)-horseradish peroxidase conjugate (1:2000) (DAKO, Carpinteria, Calif.); and donkey anti-rabbit IgG-horseradish peroxidase conjugate (1:2000) and rabbit anti-goat IgG-horseradish peroxidase conjugate (1:2000) (Amersham Pharmacia Biotech, Arlington Heights, Ill.).
Background: In western blotting, separated proteins are transferred to a membrane and probed.

Regarding `COc1cc2c(cc1OC)[C@@H]1C(=O)c3ccc4c(c3O[C@@H]1CO2)C=CC(C)(C)O4` [deguelin, Deguelin], the “decrease in PI3K activity compared with untreated cells” value in the experiment with PI3K in 1799 cells is “approximately 55%”. For the same molecule, the “levels of pAkt and pGSK-3β” value in experiment [1] (0-24 h) was “time-dependent decrease in the levels of pAkt and pGSK-3β”. Moreover, the pAkt level result in experiment [1] (by 14 h) is on record as “virtually undetectable”. The apoptotic events result with 1198 and 1170-1 cells is “did not induce detectable apoptotic events”. Also, in experiment [2], the cell cycle distribution entry is on record as “accumulated in the G2/M phase”. The caspase-3 activation result in the experiment with 1799 cells (10^−8 M or 10^−7 M) is “activated caspase-3”. In addition, in the experiment on 1799 cells, the Bax level result was “dose dependent increase in the level of Bax”, the Bcl-2 expression result was “slight decrease in Bcl-2 expression” and the Bcl-xL level result is “did not affect the level of Bcl-xL”.
